Data: US20250381324A1, “CD31 MIMETIC COATING FOR ENDOVASCULAR STENT” (INSERM (Institut National de la Santé et de la Recherche …, priority 2021, published 2025)
Bridge positions count the residues as written; N and C are the ends. Square brackets hold non-standard residues; d marks the D form. Primed or numbered codes have the meaning given here. Ends that are not written are not given here. * marks the point of attachment. Lys(N3) = [N-]=[N+]=NCCCC[C@H](N)C(=O)O; Ttds = NCCCOCCOCCOCCCNC(=O)CCC(=O)*; hCys = N[C@@H](CCS)C(=O)O; PEG4′ = not defined here

Key:
[1] = test system: Primary Human Aortic Endothelial Cells (HAEC); assay: Human aortic endothelial cells grown 48 h on bare or peptide-coated nitinol disks; F-actin / CD31 staining and image analysis; assay type: cell-based; conditions: for CD31 expression (physiologic endothelial phenotype), Integrated Density / F-actin expression (cellular stress), Integrated Density: HAEC 48 h on coated nitinol disks; for CD31 expression (physiologic endothelial phenotype), Integrated Density: compared to other modified disks and bare controls, FIGS. 2, 4, 5; for CD31/Actin score: Example 2, FIG. 25, repeated experiments (SP547, SP548 only one measure); for F-actin expression (cellular stress), Integrated Density: compared to bare metal, FIGS. 2, 3, 5
Description: Nitinol disks are left untouched (bare metal) or coated with a domain 1, domain 2 or domain 1 and 2 CD31 analog peptide. The tested peptide is grafted to the nitinol disk following a polydopamine, DBCO-PEG4-amine and azide CD31 derivative peptide using a sequential dip-coating layering procedure. After this step, all the disks are incubated with Human aortic endothelial cells for 48 h. Disks are then rinsed and the cells are fixed in a formalin solution before staining. The staining is fulfilled using phalloidin coupled to AlexaFluor®488 dye (green fluorescence for Actin), DAPI is used for DNA staining and a domain 1 CD31 antibody coupled to APC is used for external Domain 1 staining. The cell adhesion and Actin/CD31 expression was evaluated by image analysis of the surface after staining.
In particular, as per FIG. 2 the bare or coated nitinol disks were placed at the bottom of culture wells. Primary Human Aortic Endothelial Cells (HAEC) were allowed to grow on the disks for a period of 48 h. The disks were thereafter rinsed with phosphate buffered saline, fixed in formalin, and processed for fluorescence microscopy. Disk-adherent cells were immersed in a solution comprising Hoechst 33342 (1 μg/ml, to stain the nuclei), phalloidin coupled to AlexaFluor®488 dye (0.5 μM, to stain F-actin fibers) and a monoclonal antibody directed against CD31 domain 1, coupled to allophycocyanin (to detect the presence and localization of intact CD31 at the cell surface) for 1 hour at 37° C., washed and mounted face down on glass bottom imaging chambers for imaging with an inverted fluorescence microscope.
Surface type is indicated on the Y axis, data are expressed as average±SD (N=6/surface type). Each dot corresponds to a specific surface modification. The F-actin expression relates the cellular stress of the cell in presence of the exogenous material.
In FIG. 4 the surface type is indicated on the Y axis. Each dot corresponds to a specific surface modification. Data are expressed as “Integrated Density” average±SD (N=6/surface type). CD31 expression relates the capacity of endothelial cells to adopt a physiologic phenotype while growing on a given substrate. An important variability is observed in terms of CD31 expression by HAEC according to the surface modification of the nitinol disks.
The “mirror” bars of FIG. 5 report the average Integrated Density of F-actin (left) and of CD31 (right) staining for each of the indicated (Y axis) type of peptide coated onto the disk surface and bare disks. Data are sorted (from the top to the bottom) according to the increase in the cellular stress (actin expression) of each coating. As shown on the figure, the degree of cellular stress (as detected by a high actin expression) and impaired endothelial phenotype (documented by a low CD31 expression) is evident on HAEC grown onto bare metal disks.
The data shown in FIG. 6 are expressed as the ratio between CD31 and F-actin expression.
The effect of different peptides, belonging to the different groups, were tested in batches following the same protocol as in FIG. 6. Different peptides from each group were tested in batches and the effect of individual peptides was repeatedly assessed in separate experiments. Data from all experiments were obtained by computer-assisted analysis of images of the disk side covered with endothelial cells, captured in the blue, green and red channel of an inverted fluorescence microscope. The functional score of the peptides belonging to the different groups was calculated by multiplying the number of cells (as detected by the number of blue, Dapi+ nuclei) for the integrated density of CD31 expression (red signal provided by the binding of a mouse anti-human CD31 monoclonal antibody, clone 9G11, conjugated allophycocyanin) and their product being divided for the integrated density of the F-actin polymerization (Phalloidin coupled to a green fluorochrome). […]

endothelial cells = conditions: immobilized peptide, in vitro; cited from earlier work

Substance	CD31/Actin score [1]	further results
Ac-K(N3)-(Ttds)4-PRhCTLDKKEAIQGGIVRVNhCSVPEEK-CONH2 ({Ac-Lys(N3)-Ttds-Ttds-Ttds-Ttds}-PR[hCys]TLDKKEAIQGGIVRVN[hCys]SVPEEK-NH2; disulfide 3-20) [SP1380]	–	CD31 expression (physiologic endothelial phenotype), Integrated Density [1]: evident positive effect in terms of CD31 expression
[^#CH2CONH2GTYKSTVIVNNKEKTTAEYQ-(Ttds)4-K(N3)-NH2]-[QHQMLFYhC^#DDVLFYNISSMK-CONH2] (chain 1 GTYKSTVIVNNKEKTTAEYQ-{Ttds-Ttds-Ttds-Ttds-Lys(N3)-NH2}; chain 2 QHQMLFY[hCys]DDVLFYNISSMK-NH2; not fully specified (N-terminus); also: thioether at chain B 8 to a chain's N-terminus) [SP1379]	significantly higher than those obtained by the bare metal disks or by disks coated with PDA alone	–
RDQNFVILEFP-PEG4-K(N3)-NH2 [SP1070]	significantly higher than those obtained by the bare metal disks or by disks coated with PDA alone	F-actin expression (cellular stress), Integrated Density [1]: does not show an influence on the cellular stress compared to the bare metal
Ac-K(N3)-PEG4-PRVTLDKKEAIQGGIVRVNSSVPEEK-CONH2 (Ac-[Lys(N3)][PEG4′]PRVTLDKKEAIQGGIVRVNSSVPEEK-NH2) [SP1071]	significantly higher than those obtained by the bare metal disks or by disks coated with PDA alone	–
hCHQMLFYKDDVLFYNISShCK-Ttds-Ttds-Ttds-Ttds-K(N3)-CONH2 ([hCys]HQMLFYKDDVLFYNISS[hCys]K-{Ttds-Ttds-Ttds-Ttds-Lys(N3)-NH2}; cysteine pairing not given here) [SP1374]	significantly higher than those obtained by the bare metal disks or by disks coated with PDA alone	F-actin expression (cellular stress), Integrated Density [1]: low cellular stress (low actin expression); CD31 expression (physiologic endothelial phenotype), Integrated Density ([1]; listed as 1374): evident positive effect in terms of CD31 expression; CD31 expression (physiologic endothelial phenotype), Integrated Density ([1]; listed as SP 1374): consistent functional endothelial phenotype (high CD31 expression)
KWPALFVR [P8RI]	–	blood element reaction (endothelial cells): reduces the blood element reaction
Ac-K(N3)-GGSGGSGG-YKDDVLFYNISSMKST-NH2 (Ac-[Lys(N3)]GGSGGSGGYKDDVLFYNISSMKST-NH2; SMILES CC[C@H](C)[C@H](NC(=O)[C@H](CC(N)=O)NC(=O)[C@H](Cc1ccc(O)cc1)NC(=O)[C@H](Cc1ccccc1)NC(=O)[C@H](CC(C)C)NC(=O)[C@@H](NC(=O)[C@H](CC(=O)O)NC(=O)[C@H](CC(=O)O)NC(=O)[C@H](CCCCN)NC(=O)[C@H](Cc1ccc(O)cc1)NC(=O)CNC(=O)CNC(=O)[C@H](CO)NC(=O)CNC(=O)CNC(=O)[C@H](CO)NC(=O)CNC(=O)CNC(=O)[C@H](CCCCN=[N+]=[N-])NC(C)=O)C(C)C)C(=O)N[C@@H](CO)C(=O)N[C@@H](CO)C(=O)N[C@@H](CCSC)C(=O)N[C@@H](CCCCN)C(=O)N[C@@H](CO)C(=O)N[C@H](C(N)=O)[C@@H](C)O) [SP547]	equivalent to those of sections coated by other peptides according to the invention	–
SHQMLFYKDDVLFYNISSS-GGSGGSGG-K(N3)-CONH2 (SHQMLFYKDDVLFYNISSSGGSGGSGG[Lys(N3)]-NH2; N-terminus assumed; SMILES CC[C@H](C)[C@H](NC(=O)[C@H](CC(N)=O)NC(=O)[C@H](Cc1ccc(O)cc1)NC(=O)[C@H](Cc1ccccc1)NC(=O)[C@H](CC(C)C)NC(=O)[C@@H](NC(=O)[C@H](CC(=O)O)NC(=O)[C@H](CC(=O)O)NC(=O)[C@H](CCCCN)NC(=O)[C@H](Cc1ccc(O)cc1)NC(=O)[C@H](Cc1ccccc1)NC(=O)[C@H](CC(C)C)NC(=O)[C@H](CCSC)NC(=O)[C@H](CCC(N)=O)NC(=O)[C@H](Cc1c[nH]cn1)NC(=O)[C@@H](N)CO)C(C)C)C(=O)N[C@@H](CO)C(=O)N[C@@H](CO)C(=O)N[C@@H](CO)C(=O)NCC(=O)NCC(=O)N[C@@H](CO)C(=O)NCC(=O)NCC(=O)N[C@@H](CO)C(=O)NCC(=O)NCC(=O)N[C@@H](CCCCN=[N+]=[N-])C(N)=O) [SP745]	significantly higher than those obtained by the bare metal disks or by disks coated with PDA alone	–
[Ac-K(N3)-(Ttds)4-PRVTLDKKEAIQGGIVRVNSSVPEEK-Ttds-K^# (CH2CO)-CONH2]-[QHQMLFYhC^#DDVLFYNISSMK-CONH2] (chain 1 {Ac-Lys(N3)-Ttds-Ttds-Ttds-Ttds}-PRVTLDKKEAIQGGIVRVNSSVPEEK-{Ttds-K(CH2CO)-NH2}; chain 2 QHQMLFY[hCys]DDVLFYNISSMK-NH2; also: thioether at chain B 8 to a chain's C-terminus) [SP1383]	significantly higher than those obtained by the bare metal disks or by disks coated with PDA alone	–
Ac-YKDDVLFYNISSMKST-GGSGGSGG-K(N3)-NH2 (Ac-YKDDVLFYNISSMKSTGGSGGSGG[Lys(N3)]-NH2; SMILES CC[C@H](C)[C@H](NC(=O)[C@H](CC(N)=O)NC(=O)[C@H](Cc1ccc(O)cc1)NC(=O)[C@H](Cc1ccccc1)NC(=O)[C@H](CC(C)C)NC(=O)[C@@H](NC(=O)[C@H](CC(=O)O)NC(=O)[C@H](CC(=O)O)NC(=O)[C@H](CCCCN)NC(=O)[C@H](Cc1ccc(O)cc1)NC(C)=O)C(C)C)C(=O)N[C@@H](CO)C(=O)N[C@@H](CO)C(=O)N[C@@H](CCSC)C(=O)N[C@@H](CCCCN)C(=O)N[C@@H](CO)C(=O)N[C@H](C(=O)NCC(=O)NCC(=O)N[C@@H](CO)C(=O)NCC(=O)NCC(=O)N[C@@H](CO)C(=O)NCC(=O)NCC(=O)N[C@@H](CCCCN=[N+]=[N-])C(N)=O)[C@@H](C)O) [SP548]	equivalent to those of sections coated by other peptides according to the invention	–
